Assay results as given in PMC10626578, “Designed switch from covalent to non-covalent inhibitors of carboxylesterase Notum activity” (European Journal of Medicinal Chemistry, 2023).
Converted amounts (≈) assume the structure as drawn. “And” between values parts separate entries of the source, which are not always exact repeats. Identical values can stand only once. Like-named read-outs stand apart in the source and are kept apart here.

What was measured:
[1] = molecular target: T1, Notum (core, 81–451C330S) (Homo sapiens, UniProt Q6P988, C330S); assay: Notum-OPTS biochemical assay, Notum (81–451C330S)
T1 construct: high-throughput biochemical assay with Notum (81–451C330S) and OPTS as a synthetic fluorescent substrate; made in house
T1 sequence (Q6P988 81-451 C330S): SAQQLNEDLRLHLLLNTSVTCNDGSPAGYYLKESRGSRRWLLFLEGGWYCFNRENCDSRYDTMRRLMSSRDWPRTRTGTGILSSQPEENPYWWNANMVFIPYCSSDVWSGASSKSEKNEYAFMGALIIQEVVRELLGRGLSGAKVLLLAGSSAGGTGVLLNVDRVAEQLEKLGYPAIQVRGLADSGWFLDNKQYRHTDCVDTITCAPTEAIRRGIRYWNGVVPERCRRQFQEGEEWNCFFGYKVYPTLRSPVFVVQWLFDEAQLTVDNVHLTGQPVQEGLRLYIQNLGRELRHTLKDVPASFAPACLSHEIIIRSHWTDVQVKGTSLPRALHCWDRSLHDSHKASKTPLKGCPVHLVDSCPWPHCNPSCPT
Description: Notum inhibitors 3–5 (Table 1, Table 2, Table 3, Table 4) were either purchased or prepared using established synthetic methods from readily available starting materials (Scheme 1). Where necessary, the synthesis of many of these amines (e.g. 6) have been reported previously and full details of their preparation have been included in the Experimental Section. Notum inhibition activity was determined using the standard Notum-OPTS biochemical assay using IC50 values. These values were used to compare relative activities with covalent inhibitors under carefully regulated assay conditions. […] Selected inhibitors were screened for inhibition of Notum activity in a TCF/LEF Reporter (Luciferase) cell line with exogenous WNT3a and Notum, and soaked into Notum crystals to determine their binding modes and evidence of MoA.
(§1) Methods have been described in detail.

[2] = molecular target: T2, Notum (full length) (Homo sapiens, UniProt Q6P988); assay: Notum-OPTS biochemical assay, full length Notum
T2 construct: Screening 4w and 4y in the biochemical assay using full length Notum and OPTS
T2 sequence (Q6P988 20-496): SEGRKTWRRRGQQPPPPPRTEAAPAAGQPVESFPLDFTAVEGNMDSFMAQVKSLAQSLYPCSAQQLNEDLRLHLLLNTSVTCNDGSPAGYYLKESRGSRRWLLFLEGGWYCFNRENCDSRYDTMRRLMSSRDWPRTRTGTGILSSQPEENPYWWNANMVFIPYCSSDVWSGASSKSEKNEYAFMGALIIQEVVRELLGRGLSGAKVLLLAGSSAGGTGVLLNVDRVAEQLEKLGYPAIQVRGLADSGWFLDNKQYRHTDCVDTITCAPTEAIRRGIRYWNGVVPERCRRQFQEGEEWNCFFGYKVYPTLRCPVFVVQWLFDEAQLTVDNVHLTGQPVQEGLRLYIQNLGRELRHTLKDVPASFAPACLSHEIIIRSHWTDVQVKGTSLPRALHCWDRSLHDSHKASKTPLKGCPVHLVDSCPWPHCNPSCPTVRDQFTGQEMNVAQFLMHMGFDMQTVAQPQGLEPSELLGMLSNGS
Description: (§2) Early leads 4v, 4w and 4y were then evaluated in additional pharmacology and ADME screens (Table 3). […] Screening 4w and 4y in the biochemical assay using full length Notum and OPTS confirmed potent inhibition of Notum activity.
as §1

[3] = molecular target: T3, Notum (Homo sapiens, UniProt Q6P988); assay: TCF/LEF Reporter (Luciferase) cell line with exogenous WNT3a and Notum; format: cell-based; conditions: for restoration of Wnt signalling in the presence of Notum: concentration-response curves up to 10 μM
T3 construct: host or cells: TCF/LEF Reporter (Luciferase) cell line; Notum added exogenously
T3 sequence (Q6P988 20-496): T2 sequence (Q6P988 20-496)
Description: Notum inhibitors 3–5 (Table 1, Table 2, Table 3, Table 4) were either purchased or prepared using established synthetic methods from readily available starting materials (Scheme 1). Where necessary, the synthesis of many of these amines (e.g. 6) have been reported previously and full details of their preparation have been included in the Experimental Section. Notum inhibition activity was determined using the standard Notum-OPTS biochemical assay using IC50 values. These values were used to compare relative activities with covalent inhibitors under carefully regulated assay conditions. Confirmed inhibitors were routinely screened in in vitro ADME assays. Selected inhibitors were screened for inhibition of Notum activity in a TCF/LEF Reporter (Luciferase) cell line with exogenous WNT3a and Notum, and soaked into Notum crystals to determine their binding modes and evidence of MoA. […]
as §1

[4] = Distribution coefficient LogD7.4, shake flask method; format: physicochemical; conditions: pH 7.4; Table 3
Description: Molecular properties (MW, clogP) were calculated with ChemDraw Professional v16.0.1.4(77). Distribution coefficients (LogD7.4) were measured using the shake flask method.
Representative assay protocols have been described in detail.^1,^2

[5] = Aqueous solubility in PBS (pH 7.4); format: physicochemical; conditions: for solubility thermodynamic: PBS, Table S2, pH 7.4, n = 2, * below lower limit of quantification, read-out: Thermodynamic Solubility @ RT; for solubility: Table 3, PBS pH 7.4
Description: (§3) Selected compounds were routinely screened for aqueous solubility in PBS (pH 7.4), transit performance in MDCK-MDR1 cell lines for permeability, and metabolic stability in MLM and HLM as a measure of clearance. The main metabolites and routes of metabolism of 4y were determined in MLM. Assay protocols and additional data are presented in the Supplementary Material (Tables S1–S7). ADME studies reported in this work were performed by WuXi AppTec (Shanghai, China).
(§4) Representative assay protocols have been described in detail. ^1,2

[6] = Stability in mouse liver microsomes; format: in vitro ADME; conditions: for microsomal CLint at 1 h: Table 3, read-out: MLM Clint; for half-life: mouse, read-out: MLM Stability t1/2
Description: as §3, §4

[7] = Stability in human liver microsomes; format: in vitro ADME
Description: as §3, §4

[8] = Stability in mouse plasma; format: in vitro ADME
Source text: as §4

[9] = Permeability using MDR1-MDCKII cell monolayer; format: in vitro ADME; conditions: dog, MDCK-MDR1, Table S3, mean n=2
Description: as §3, §4

[10] = tested on: MDR1-MDCKII cell monolayer; assay: Permeability using MDR1-MDCKII cell monolayer; format: in vitro ADME; conditions: Table 3; efflux ratio
Description: as §3, §4

[11] = tested on: MDR1; assay: Permeability using MDR1-MDCKII cell monolayer; format: in vitro ADME; conditions: dog
Description: as §3, §4

[12] = tested on: TCF/LEF Reporter (Luciferase) cell line; assay: TCF/LEF reporter (Luciferase) assay with WNT3A in the absence of Notum; format: cell-based; conditions: up to 10 μM
Description: as §2
Figure S4D. Notum TCF/LEF reporter (Luciferase) data with WNT3A (200 ng/mL) in the absence of Notum. Representative response-concentration curves are for 4w (2 of 6 shown) from a larger data set for compounds 3-5. Examples are from different screening runs.

[13] = Metabolite identification of 4y in mouse liver microsomes (LC-UV-MS); format: in vitro ADME; conditions: 4y at 10 µM incubated with MLM at 37 °C for 60 min; share of total drug-related components
Description: The test compound 4y at 10 µM was incubated with mouse liver microsomes (MLM) at 37 °C for 60 min. The positive control, 7-ethoxycoumarin (7-EC) at 10 µM, was run concurrently to assess Phase I metabolic activities in liver microsomes. […] After incubation, the samples were analysed by LC-UV-MS. The structures of the metabolites were proposed based on the interpretation of their MS and MS^2 data.
The relative abundance of 4y and each of the putative metabolites were calculated using peak area (peak area under the UV spectrum at 250-280 nm) of individual metabolite relative to the total area of all detected drug-related components (Table S6).

[14] = Notum (core, 81–451C330S), read-out: OPTS, IC50
[15] = Table 2, mean ± s.d. of n = 4–12, >10 = 20–50% inhibition @ 10 μM, read-out: Notum IC50
[16] = Notum (full length), read-out: OPTS, IC50
[17] = Notum (core, 81–451C330S), restoration of Wnt signalling, read-out: TCF-LEF, EC50

CC(=O)N1CCc2c1ccc(Cl)c2Cl [Compound 4w, 1-(4,5-Dichloroindolin-1-yl)ethan-1-one]
IC50 ([1]; Figure S4A, Notum (81-451 C330S) OPTS, 4 of 11 curves shown, read-out: IC50, single concentration-response curve): 2.8 nM and 3.7 nM and 2.3 nM and 3.1 nM | IC50 [1, 14]: 2.5 ± 0.6 nM | IC50 [1, 15]: 2.5 ± 0.6 nM | LE ([1]; ligand efficiency from Notum OPTS IC50): 0.85 | LLE ([1]; lipophilic ligand efficiency from Notum OPTS IC50 and clogP): 5.9 | IC50 ([2]; Figure S4B, Notum (full length) OPTS, 3 of 3 curves shown, read-out: IC50, single concentration-response curve): 5.3 nM and 4.1 nM and 5.4 nM | IC50 [2, 16]: 4.9 ± 0.6 nM | EC50 ([3]; Figure S4C, WNT3A (200 ng/mL), 6 of 6 curves shown, read-out: EC50, single concentration-response curve): 5.5 nM and 4.3 nM and 15.2 nM and 39 nM and 29.1 nM and 36.8 nM | EC50 [3, 17]: 22 ± 14 nM | restoration of Wnt signalling in the presence of Notum [3]: restored Wnt signalling | logD [4]: 3.1 | solubility thermodynamic [5]: < 0.36 µg/mL | solubility [5]: 0.4 µg/mL (≈ 1.74 µM) | MLM Stability Cli [6]: 1150 µL/min/mg protein | microsomal CLint at 1 h [6]: 1200 µL/min/mg | half-life [6]: 1.2 min | HLM Stability Cli [7]: 138 µL/min/mg protein | microsomal CLint at 1 h ([7]; Table 3, read-out: HLM Clint): 140 µL/min/mg | half-life ([7]; human, read-out: HLM Stability t1/2): 10 min | half-life ([8]; Table S5, read-out: Mouse plasma Stability t1/2): > 280 min | half-life ([8]; read-out: mouse plasma stability t½): > 240 min | recovery ([9]; read-out: A to B % Recovery): 75% | recovery ([9]; read-out: B to A % Recovery): 81% | MDCK-MDR1 ER [10]: 0.60 | Papp ([11]; MDCK-MDR1, Table 3, apical to basal, read-out: MDCK-MDR1 AB Papp): 35 ×10⁻⁶ cm/s | Papp ([11]; MDCK-MDR1, Table 3, basal to apical, read-out: MDCK-MDR1 BA Papp): 21 ×10⁻⁶ cm/s | efflux ratio ([11]; MDCK-MDR1, Table S3, mean n=2): 0.59 | Papp ([11]; MDCK-MDR1, Table S3, mean n=2, read-out: Apical to Basal Papp): 35.5 ×10⁻⁶ cm/s | Papp ([11]; MDCK-MDR1, Table S3, mean n=2, read-out: Basal to Apical Papp): 21.1 ×10⁻⁶ cm/s | assay interference or cell toxicity in the absence of Notum [12]: not by assay interference or cell toxicity

CC(=O)N1CC2(CC2)c2c(Cl)cccc21 [Compound 4y, 1-(4′-Chlorospiro[cyclopropane-1,3′-indolin]-1′-yl)ethan-1-one]
IC50 [1, 14]: 3.5 ± 0.6 nM | IC50 [1, 15]: 3.5 ± 0.6 nM | IC50 [2, 16]: 11 ± 1.4 nM | EC50 [3, 17]: 35 ± 13 nM | restoration of Wnt signalling in the presence of Notum [3]: restored Wnt signalling | solubility thermodynamic [5]: 0.186 µg/mL (≈ 0.839 µM) | solubility [5]: 0.2 µg/mL (≈ 0.902 µM) | MLM Stability Cli [6]: 895 µL/min/mg protein | microsomal CLint at 1 h [6]: 900 µL/min/mg | half-life [6]: 1.5 min | Relative Abundance (UV peak area %Total) [13]: 30% and 30.48% | assay interference or cell toxicity in the absence of Notum [12]: not by assay interference or cell toxicity
